Results: patent publication US9963467B2, “Boronic acid derivatives and therapeutic uses thereof” (Rempex Pharmaceuticals, Inc., priority 2014, dated 2018)

Experiments:
KP1005 (CTX-M-14) [1] = assay: Aztreonam potentiation (MPC@4), KP1005; assay type: cell-based; details: BLI with aztreonam at 4 μg/mL
KP1009 (CTX-M-15) [2] = assay: organism not typed; assay type: cell-based
ec302 (TEM-10) [3] = assay: Aztreonam potentiation (MPC@4), ec302; assay type: cell-based; details: BLI with aztreonam at 4 μg/mL
KP1004 (KPC-2) [4] = assay: Aztreonam potentiation (MPC@4), KP1004; assay type: cell-based; details: BLI with aztreonam at 4 μg/mL
ECL1002 [5] = assay: Aztreonam potentiation (MPC@4), ECL1002; assay type: cell-based; details: BLI with aztreonam at 4 μg/mL
EC1010 (CMY-6) [6] = assay: organism not typed; assay type: cell-based
KP1005 (CTX-M-14) [7] = assay: Tigemonam potentiation (MPC@4), KP1005; assay type: cell-based; details: BLI with tigemonam at 4 μg/mL
KP1009 (CTX-M-15) [8] = assay: Tigemonam potentiation (MPC@4), KP1009; assay type: cell-based; details: BLI with tigemonam at 4 μg/mL
ec308 (SHV-5) = assay: Tigemonam potentiation (MPC@4), ec308; assay type: cell-based
KP1010 (SHV-12) = assay: Tigemonam potentiation (MPC@4), KP1010; assay type: cell-based
ec302 (TEM-10) [9] = assay: Tigemonam potentiation (MPC@4), ec302; assay type: cell-based
ECL1002 [10] = assay: Tigemonam potentiation (MPC@4), ECL1002; assay type: cell-based; details: BLI with tigemonam at 4 μg/mL
EC1010 (CMY-6) [11] = assay: Tigemonam potentiation (MPC@4), EC1010; assay type: cell-based; details: BLI with tigemonam at 4 μg/mL
CTX-M-14 = CTX-M-14 (Escherichia coli, UniProt Q9L5C7); assay: Ki, nitrocefin cleavage by purified enzyme, CTX-M-14; assay type: biochemical; details: nitrocefin reporter substrate; read-out: Ki (CTX-M-14, NCF)
Chain of CTX-M-14 (Q9L5C7 29-291): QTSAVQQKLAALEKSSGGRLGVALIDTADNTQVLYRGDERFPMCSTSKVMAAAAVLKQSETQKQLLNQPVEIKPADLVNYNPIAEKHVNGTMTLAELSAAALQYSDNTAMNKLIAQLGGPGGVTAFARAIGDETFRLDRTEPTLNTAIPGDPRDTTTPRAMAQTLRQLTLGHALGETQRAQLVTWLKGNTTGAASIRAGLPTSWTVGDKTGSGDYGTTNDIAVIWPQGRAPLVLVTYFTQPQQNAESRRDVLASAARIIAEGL
Procedure, shortened: (§1)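 Steps: enzyme plus inhibitor dilutions in reaction buffer; 10 min at room temperature; add nitrocefin; read absorbance at 490 nm each 10 sec for 10 min.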

SHV-12 = SHV-12 (Klebsiella pneumoniae, UniProt P0AD64, E235K/G234S/L31Q); assay: Ki, nitrocefin cleavage by purified enzyme, SHV-12; assay type: biochemical; details: nitrocefin reporter substrate; read-out: Ki (SHV-12, NCF)
Chain of SHV-12 (P0AD64 22-286 L31Q/G234S/E235K): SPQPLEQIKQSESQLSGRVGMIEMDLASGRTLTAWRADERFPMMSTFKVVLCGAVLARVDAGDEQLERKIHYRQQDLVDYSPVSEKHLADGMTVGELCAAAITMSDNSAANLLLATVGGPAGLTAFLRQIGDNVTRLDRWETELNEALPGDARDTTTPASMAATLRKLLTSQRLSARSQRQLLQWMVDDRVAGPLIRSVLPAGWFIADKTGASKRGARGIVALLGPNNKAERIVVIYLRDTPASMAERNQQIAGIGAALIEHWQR
Procedure, shortened: as §1

KPC-2 = KPC-2 (Klebsiella pneumoniae, UniProt Q9F663); assay: Ki, nitrocefin cleavage by purified enzyme, KPC-2; assay type: biochemical; details: nitrocefin reporter substrate; read-out: Ki (KPC-2, NCF)
Chain of KPC-2 (Q9F663 25-293, looked up, species assumed): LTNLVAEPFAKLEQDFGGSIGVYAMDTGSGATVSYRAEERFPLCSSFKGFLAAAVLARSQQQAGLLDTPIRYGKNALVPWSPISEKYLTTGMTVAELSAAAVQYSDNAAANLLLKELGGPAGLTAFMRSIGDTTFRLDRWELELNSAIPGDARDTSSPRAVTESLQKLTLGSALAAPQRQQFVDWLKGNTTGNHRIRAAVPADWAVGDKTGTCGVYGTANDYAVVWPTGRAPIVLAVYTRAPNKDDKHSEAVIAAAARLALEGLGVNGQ
Procedure, shortened: as §1

P99 = P99 (Enterobacter cloacae, UniProt P05364); assay: Ki, nitrocefin cleavage by purified enzyme, P99; assay type: biochemical; details: nitrocefin reporter substrate; read-out: Ki (P99, NCF)
Chain of P99 (P05364 21-381): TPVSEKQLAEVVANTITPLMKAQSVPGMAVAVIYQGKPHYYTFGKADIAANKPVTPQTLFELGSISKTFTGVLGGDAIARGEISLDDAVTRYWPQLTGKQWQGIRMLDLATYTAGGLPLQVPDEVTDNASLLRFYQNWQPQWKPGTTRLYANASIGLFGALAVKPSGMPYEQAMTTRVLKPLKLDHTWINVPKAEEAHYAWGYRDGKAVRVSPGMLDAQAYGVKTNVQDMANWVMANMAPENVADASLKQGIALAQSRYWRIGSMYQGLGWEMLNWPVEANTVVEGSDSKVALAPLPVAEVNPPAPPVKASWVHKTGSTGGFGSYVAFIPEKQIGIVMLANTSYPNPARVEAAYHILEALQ
Procedure, shortened: as §1

Pa AmpC = Pa AmpC (Pseudomonas aeruginosa, UniProt P24735); assay: Ki, nitrocefin cleavage by purified enzyme, Pa AmpC; assay type: biochemical; details: nitrocefin reporter substrate; read-out: Ki (Pa AmpC, NCF)
Chain of Pa AmpC (P24735 27-397): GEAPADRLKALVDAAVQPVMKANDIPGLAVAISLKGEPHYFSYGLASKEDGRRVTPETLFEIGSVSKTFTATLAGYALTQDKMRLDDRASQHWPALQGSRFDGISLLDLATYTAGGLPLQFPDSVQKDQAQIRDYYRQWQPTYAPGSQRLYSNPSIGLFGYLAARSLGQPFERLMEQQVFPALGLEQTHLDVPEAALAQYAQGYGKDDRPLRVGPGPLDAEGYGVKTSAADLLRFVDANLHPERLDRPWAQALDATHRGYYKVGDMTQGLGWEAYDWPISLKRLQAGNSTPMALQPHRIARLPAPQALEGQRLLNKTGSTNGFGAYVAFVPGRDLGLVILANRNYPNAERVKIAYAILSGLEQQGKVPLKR
Procedure, shortened: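 Kinetic read at 490 nm (every 10 sec, 10 min) of nitrocefin cleavage; purified enzyme preincubated 10 min at room temperature with inhibitor series; Ki determined.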

OXA-48 = OXA-48 (Klebsiella pneumoniae, UniProt Q6XEC0); assay: Ki, nitrocefin cleavage by purified enzyme, OXA-48; assay type: biochemical; details: nitrocefin reporter substrate; read-out: Ki (OXA-48, NCF)
Chain of OXA-48 (Q6XEC0 23-265, looked up, species assumed): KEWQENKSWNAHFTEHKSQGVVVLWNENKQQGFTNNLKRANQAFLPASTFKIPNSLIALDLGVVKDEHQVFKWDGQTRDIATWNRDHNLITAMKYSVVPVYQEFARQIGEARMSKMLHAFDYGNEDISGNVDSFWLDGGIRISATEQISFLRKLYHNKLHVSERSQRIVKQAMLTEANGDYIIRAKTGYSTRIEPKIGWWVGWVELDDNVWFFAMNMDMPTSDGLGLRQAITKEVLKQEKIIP
Procedure, shortened: as §1

KP1004 (KPC-2) [12] = assay: Biapenem potentiation (MPC@1), KP1004; details: BLI with biapenem at 1 μg/mL
KP1086 (OXA-48) = assay: Biapenem potentiation (MPC@1), KP1086; details: BLI with biapenem at 1 μg/mL

Compound | AZT MPC4 CTX-M-15 KP1009 (KP1009 (CTX-M-15) [2]) | AZT MPC4 TEM-10 ec302 (ec302 (TEM-10) [3]) | AZT MPC4 KPC-2 KP1004 (KP1004 (KPC-2) [4]) | AZT MPC4 ECL1002 (ECL1002 [5]) | AZT MPC4 CMY-6 EC1010 (EC1010 (CMY-6) [6]) | TIG MPC4 CTX-M-14 KP1005 (KP1005 (CTX-M-14) [7]) | TIG MPC4 CTX-M-15 KP1009 (KP1009 (CTX-M-15) [8]) | TIG MPC4 SHV-5 ec308 (ec308 (SHV-5)) | TIG MPC4 SHV-12 KP1010 (KP1010 (SHV-12)) | TIG MPC4 TEM-10 ec302 (ec302 (TEM-10) [9]) | TIG MPC4 ECL1002 (ECL1002 [10]) | TIG MPC4 CMY-6 EC1010 (EC1010 (CMY-6) [11]) | Ki (CTX-M-14) | Ki (SHV-12) | Ki (KPC-2) | Ki (P99) | Ki (Pa AmpC) | Ki (OXA-48) | BPM MPC1 KP1004 KPC-2 (KP1004 (KPC-2) [12]) | BPM MPC1 OXA-48 KP1086 (KP1086 (OXA-48)) | further results
Nc1nnc(C(=O)N[C@H]2Cc3ccc(F)c(C(=O)O)c3OB2O)s1 [Compound 8, (R)-3-(5-amino-1,3,4-thiadiazole-2-carboxamido)-7-fluoro-2-hydroxy-3,4-dihydro-2H-benzo[e][1,2]oxaborinine-8-carboxylic acid] | Y (key: X: MIC of less than 1 ng/mL; Y: MIC of 1 μg/mL to 10 μg/mL; Z: MIC of greater than 10 μg/mL) | Y (MIC of 1 μg/mL to 10 μg/mL) | Y (MIC of 1 μg/mL to 10 μg/mL) | Y (MIC of 1 μg/mL to 10 μg/mL) | Y (key: X: MIC of less than 1 ng/mL; Y: MIC of 1 μg/mL to 10 μg/mL; Z: MIC of greater than 10 μg/mL) | Y (MIC of 1 μg/mL to 10 μg/mL) | Y (MIC of 1 μg/mL to 10 μg/mL) | X (key: X: MIC of less than 1 μg/mL; Y: MIC of 1 μg/mL to 10 μg/mL; Z: MIC of greater than 10 μg/mL) | X (key: X: MIC of less than 1 μg/mL; Y: MIC of 1 μg/mL to 10 μg/mL; Z: MIC of greater than 10 μg/mL) | Y (key: X: MIC of less than 1 ng/mL; Y: MIC of 1 μg/mL to 10 μg/mL; Z: MIC of greater than 10 μg/mL) | Y (MIC of 1 μg/mL to 10 μg/mL) | X (MIC of less than 1 μg/mL) | < 1 nM | < 1 nM | > 10 nM | > 10 nM | > 10 nM | < 1 nM | X (MIC of less than 1 μg/mL) | Y (MIC of 1 μg/mL to 10 μg/mL) | AZT MPC4 CTX-M-14 KP1005 (KP1005 (CTX-M-14) [1]): Y (MIC of 1 μg/mL to 10 μg/mL)
CSCC(=O)N[C@H]1Cc2ccc(SCCO)c(C(=O)O)c2OB1O [Compound 23, (R)-2-hydroxy-7-(2-hydroxyethylthio)-3-(2-(methylthio)acetamido)-3,4-dihydro-2H-benzo[e][1,2]oxaborinine-8-carboxylic acid] | Y (key: X: MIC of less than 1 ng/mL; Y: MIC of 1 μg/mL to 10 μg/mL; Z: MIC of greater than 10 μg/mL) | Y (MIC of 1 μg/mL to 10 μg/mL) | Y (MIC of 1 μg/mL to 10 μg/mL) | Y (MIC of 1 μg/mL to 10 μg/mL) | Y (key: X: MIC of less than 1 ng/mL; Y: MIC of 1 μg/mL to 10 μg/mL; Z: MIC of greater than 10 μg/mL) | X (MIC of less than 1 μg/mL) | Y (MIC of 1 μg/mL to 10 μg/mL) | X (key: X: MIC of less than 1 μg/mL; Y: MIC of 1 μg/mL to 10 μg/mL; Z: MIC of greater than 10 μg/mL) | X (key: X: MIC of less than 1 μg/mL; Y: MIC of 1 μg/mL to 10 μg/mL; Z: MIC of greater than 10 μg/mL) | Y (key: X: MIC of less than 1 ng/mL; Y: MIC of 1 μg/mL to 10 μg/mL; Z: MIC of greater than 10 μg/mL) | X (MIC of less than 1 μg/mL) | Y (MIC of 1 μg/mL to 10 μg/mL) | < 1 nM | < 1 nM | > 10 nM | > 10 nM | > 10 nM | < 1 nM | X (MIC of less than 1 μg/mL) | Z (MIC of greater than 10 μg/mL) | –
COc1ccc2c(c1C(=O)O)OB(O)[C@@H](NC(=O)c1nnc(N)s1)C2 [Compound 28, (R)-3-(5-amino-1,3,4-thiadiazole-2-carboxamido)-2-hydroxy-7-methoxy-3,4-dihydro-2H-benzo[e][1,2]oxaborinine-8-carboxylic acid] | Y (key: X: MIC of less than 1 ng/mL; Y: MIC of 1 μg/mL to 10 μg/mL; Z: MIC of greater than 10 μg/mL) | Y (MIC of 1 μg/mL to 10 μg/mL) | Y (MIC of 1 μg/mL to 10 μg/mL) | Y (MIC of 1 μg/mL to 10 μg/mL) | – | Y (MIC of 1 μg/mL to 10 μg/mL) | Y (MIC of 1 μg/mL to 10 μg/mL) | X (key: X: MIC of less than 1 μg/mL; Y: MIC of 1 μg/mL to 10 μg/mL; Z: MIC of greater than 10 μg/mL) | X (key: X: MIC of less than 1 μg/mL; Y: MIC of 1 μg/mL to 10 μg/mL; Z: MIC of greater than 10 μg/mL) | Y (key: X: MIC of less than 1 ng/mL; Y: MIC of 1 μg/mL to 10 μg/mL; Z: MIC of greater than 10 μg/mL) | Y (MIC of 1 μg/mL to 10 μg/mL) | X (MIC of less than 1 μg/mL) | < 1 nM | < 1 nM | > 10 nM | 1 to 10 nM | 1 to 10 nM | < 1 nM | Y (MIC of 1 μg/mL to 10 μg/mL) | Z (MIC of greater than 10 μg/mL) | AZT MPC4 CTX-M-14 KP1005 (KP1005 (CTX-M-14) [1]): Y (MIC of 1 μg/mL to 10 μg/mL)
CSCC(=O)N[C@H]1Cc2ccc(O)c(C(=O)O)c2OB1O [Compound 34, (R)-2,7-dihydroxy-3-(2-(methylthio)acetamido)-3,4-dihydro-2H-benzo[e][1,2]oxaborinine-8-carboxylic acid] | Y (key: X: MIC of less than 1 ng/mL; Y: MIC of 1 μg/mL to 10 μg/mL; Z: MIC of greater than 10 μg/mL) | Y (MIC of 1 μg/mL to 10 μg/mL) | Y (MIC of 1 μg/mL to 10 μg/mL) | Y (MIC of 1 μg/mL to 10 μg/mL) | Y (key: X: MIC of less than 1 ng/mL; Y: MIC of 1 μg/mL to 10 μg/mL; Z: MIC of greater than 10 μg/mL) | X (MIC of less than 1 μg/mL) | Y (MIC of 1 μg/mL to 10 μg/mL) | X (key: X: MIC of less than 1 μg/mL; Y: MIC of 1 μg/mL to 10 μg/mL; Z: MIC of greater than 10 μg/mL) | X (key: X: MIC of less than 1 μg/mL; Y: MIC of 1 μg/mL to 10 μg/mL; Z: MIC of greater than 10 μg/mL) | Y (key: X: MIC of less than 1 ng/mL; Y: MIC of 1 μg/mL to 10 μg/mL; Z: MIC of greater than 10 μg/mL) | X (MIC of less than 1 μg/mL) | X (MIC of less than 1 μg/mL) | < 1 nM | < 1 nM | > 10 nM | 1 to 10 nM | > 10 nM | < 1 nM | X (MIC of less than 1 μg/mL) | Y (MIC of 1 μg/mL to 10 μg/mL) | –
